Measurements reported in patent US20250325402A1, “M[…] FOR I[…] METHODS OF USING THE SAME” ([…]., priority 2024, published 2025).

Tests used:
[1] = set-up: species or system pig
Excerpt: Ex vivo assessment of ocular biodistribution of ICG with OCLX-SCDD Proof of Concept (POC) prototypes and Clearside needles at 900 and 1100 μm in pig eyes.
In this non-GLP study, we evaluated the ability of OCLX-SCDD to deliver accurately to the suprachoroidal space (SCS) and determined the optimal needle length for effective delivery. […] Ex vivo testing involved a comparative analysis of the dye's ocular biodistribution between OCLX-SCDD POCs 1-4 and the established Clearside device, allowing us to determine whether the new design offers improved delivery accuracy and effectiveness. Forty pig eyes were obtained from a farm 1 day prior to testing and SC 120 μl injections (5 mg/ml) were performed (one supertemporal injection site/eye) with ICG. Needles used included 900 μm and 1100 μm length samples from both Oculogenex and Clearside (CLS-900 and CLS-1100). One hour after injection, dissection of the eyes was performed. Images were taken with an iPhone 15 Pro camera after removal of retina, RPE/Choroidal tissue. The ICG-stained area was measured by a masked reader with Image-pro Plus 6 (Media Cybernetisc, Rockville, MD, USA) to objectively assess ICG distribution through software.

[2] = In vivo ocular biodistribution of ICG with OCLX-SCDD POC4 and Clearside needles at 1100 μm; set-up: species or system Yucatan minipig; conditions: for ICG stained area, total coverage area: ICG 5 mg/ml SC, 1 h after injection
Excerpt: In Vivo assessment of ocular biodistribution of ICG with the OCLX-SCDD POC prototype and Clearside needles at 1100 μm in pig eyes.
Suprachoroidal injections enable precise, targeted delivery to the retina, retinal pigment epithelium (RPE), and choroid, potentially offering higher bioavailability to the diseased tissues while minimizing impact on anterior segment tissues. To improve the outcome of gene therapy for AMD through the SCS, we tested if the POC4 SCDD results in ICG dye at the back of the eye. […] This allows entrance into the suprachoroidal space in 4-month-old male minipigs (n=4). Indocyanine Green (ICG), 5 mg/ml, was injected using Clearside 1100 μm (OS) or POC4 of the OCLX-SCDD 1100 μm prototype device (OD) as follows: (1) Mark and confirm selected injection site; (2) Insert the microneedle, creating a small dimple on the ocular surface to allow the tissue to displace gently while the needle enters the suprachoroidal space; (3) Inject slowly and deliberately over 5 seconds to decrease discomfort; (4) After finishing the drug injection, hold the microinjector in place for an additional 3-5 seconds. Light pressure should be applied with a cotton swab after microinjector removal for about 5 seconds; and (5) Perform OCT imaging. (6) Euthanasia was performed according to the IACUC protocol, and 1 hour after injection, eyes were microdissected to assess ICG distribution.
The ICG stained area was measured with Image-pro Plus 6 equipment. […] One of four eyes injected with the OCLX-SCDD 1100 μm POC prototype device had trace amounts of ICG in the vitreous. Based on the results in FIG. 12, to avoid intravitreal injection, alpha prototypes were redesigned to have a shorter length, targeting 925 μm, and future pig studies were performed with this needle length.

[3] = set-up: species or system Yucatan minipig; conditions: minipig, in vivo
Excerpt: OCLX-SCDD alpha prototype targeting of the SC space with ICG in pig eyes (FIG. 12).
Suprachoroidal injections enable precise, targeted delivery to the retina, retinal pigment epithelium (RPE), and choroid, potentially offering higher bioavailability to the diseased tissues while minimizing impact on anterior segment tissues. To improve SC gene therapy outcomes for AMD, we tested the alpha prototype device to determine whether the SCDD results in ICG dye distribution to the posterior pole. […] Indocyanine Green (ICG) (5 mg/ml), OS: 120 μl or OD: 150 μl, was injected using the OCLX-SCDD 925 μm alpha prototype as follows: (1) Mark and confirm selected injection site; (2) Insert the microneedle, being sure to create a small dimple on the ocular surface to allow the tissue to displace gently while the needle enters the suprachoroidal space; (3) Inject slowly and deliberately for 5 seconds; (4) After finishing the drug injection, hold the microinjector in place for an additional 5 seconds. Light pressure should be applied with a cotton swab after microinjector removal for about 5 seconds; and (5) Check IOP after injection. […]
To evaluate the effect of SC injection, images were taken after removal of the retina and RPE/Choroidal tissue (FIG. 14). The ICG stained area was measured with Image-pro Plus 6. […]

OCLX-SCDD prototypes that delivered ICG dye to the SCS alone, no biodistribution to other ocular tissues [1]: 100% | Comparison of ICG-stained area between POC4 and Clearside 1100 μm device ([2]; 1 hour after SC injection and microdissection): no significant difference | ICG stained area, total coverage area ([2]; minipigs in vivo, device Clearside 1100 μm): 55% | ICG stained area, total coverage area ([2]; minipigs in vivo, device OCLX-SCDD POC4 1100 μm): 55% | Eyes with trace amounts of ICG in the vitreous ([2]; minipigs in vivo, device OCLX-SCDD 1100 μm POC prototype): One of four | Eyes with successful targeting of the SC space [3]: 100%
Structure (SMILES): CC1(C)C(/C=C/C=C/C=C/C=C2\N(CCCCS(=O)(=O)O)c3ccc4ccccc4c3C2(C)C)=[N+](CCCCS(=O)(=O)[O-])c2ccc3ccccc3c21 [ICG, Indocyanine Green]
